Results on 12 compounds are retold here after US8729098B2, “Tertiary 8-hydroxyquinoline-7-carboxamide derivatives and uses thereof” (Polichem SA, priority 2009, dated 2014).

What is called MIC is the lowest concentration that inhibits growth of the organism.

Converted amounts (≈) assume the structure as drawn.

One data set deals with invasive aspergillosis. Particulars: daily administered at 10 mg/kg; cited from earlier work.
Data set [1] deals with Aspergillus Niger (ATCC 16404). The data set can be described thus: Broth micro-dilution antifungal susceptibility test (MIC). The class given is cell-based. Particulars: ATCC16404, 120 h, RPMI 1640 pH 7, five days at 35° C., geometric mean of two experiments. The protocol:
(§1) Trichophyton Rubrum (ATCC 28188, PBI International), Trichophyton Mentagrophytes (ATCC 9533, PBI International), Aspergillus Niger (ATCC 16404, PBI International), Scopulariopsis Brevicaulis (ATCC 36840, DSMZ), Candida Albicans (ATCC 90028, PBI International), Candida Glabrata (ATCC 90030, DSMZ).
(§2) Strains were prepared from freeze-dried ampoules or freeze-dried pellets. An isolation of the suspensions was made on Potato Dextrose Agar (PDA) to test the strains purity. A strains' massive growth was then made streaking microbial suspensions on PDA plates.
(§3) Incubation was at 30° C. for 48-72 hours (Candida yeasts) and for 7-10 days (filamentous fungi).
(§4) The yeasts' colonies and the filamentous fungi's conidia were harvested with 3-5 mL of RPMI 1640+50% glycerol and the aliquots frozen at −80° C.
(§5) Compounds' minimal inhibition concentration (MIC) was determined through broth micro-dilution susceptibility test using a method developed in agreement with the National Committee for Clinical Laboratory Standards (NCCLS) (National Committee for Clinical Laboratory Standards. Reference Method for Broth Dilution Antifungal Susceptibility Testing of Yeasts; Approved standard-Second Edition M27-A2. 2002; Vol. 22, No. 15) (National Committee for Clinical Laboratory Standards. Reference Method for Broth Dilution Antifungal Susceptibility Testing of Filamentous Fungi; Approved standard M38-A. 2002; Vol. 22, No. 16).
(§6) Assays were carried out in RPMI 1640 with L-glutamine medium buffered to pH 7 with 0.165M 3-(N-morpholino)propanesulfonic acid (MOPS) and 10M NaOH and supplemented with 18 g glucose/litre. The tests were performed using 96 well sterile plates (inoculum size of 1×10^5 CFU/mL). Compounds stock solutions were prepared at 12.8 mg/mL in 100% DMSO. A series of twofold dilutions were prepared in plate using RPMI 1640. Final concentrations ranged from 0.125 to 128 μg/mL at 1% DMSO.
(§7) MIC is defined as the lowest concentration of antifungal agent which prevents any visible growth and was determined after 48 h of incubation for yeasts (35° C.) and after five days of incubation for filamentous fungi (35° C.).

Data set [2] relates to Candida Albicans (ATCC 90028). The data set is described as above. The class given is cell-based. Particulars: ATCC90028, RPMI 1640 pH 7, 48 h at 35° C., geometric mean of two experiments. The protocol: as §1, §2, §3, §4, §5, §6, §7
Data set [3] concerns Candida Glabrata (ATCC 90030). The description is as above. It counts as cell-based. Particulars: Nakaseomyces glabratus, ATCC90030; RPMI 1640 pH 7, 48 h at 35° C.; geometric mean of two experiments. The method, then: as §1, §2, §3, §4, §5, §6, §7
The test system of data set [4] is Scopulariopsis Brevicaulis (ATCC 36840). The data set is described as above. It counts as cell-based. Particulars: ATCC36840, 120 h, RPMI 1640 pH 7, five days at 35° C., geometric mean of two experiments. The protocol: as §1, §2, §3, §4, §5, §6, §7
Data set [5] relates to Trichophyton Mentagrophytes (ATCC 9533). The data set is described as above. The class given is cell-based. Particulars: ATCC9533, 120 h, RPMI 1640 pH 7, five days at 35° C., geometric mean of two experiments, read-out: MIC Tricophyton Mentagrophytes ATCC 9533. The method, then:
as §1, §2, §3, §4, §5, §6, §7

Data set [6] deals with Trichophyton Rubrum (ATCC 28188). The data set is described as above. The conditions noted are these: ATCC28188, 120 h, RPMI 1640 pH 7, five days at 35° C., geometric mean of two experiments, read-out: MIC Trycophyton Rubrum ATCC 28188. The class given is cell-based. The method, then: as §1, §2, §3, §4, §5, §6, §7

For `C[C@@H]1[C@H](O)[C@@H](C)/C=C/C=C/C=C/C=C/C=C/C=C/C=C/[C@H](O[C@@H]2O[C@H](C)[C@@H](O)[C@H](N)[C@@H]2O)C[C@@H]2O[C@](O)(C[C@@H](O)C[C@@H](O)[C@H](O)CC[C@@H](O)C[C@@H](O)CC(=O)O[C@H]1C)C[C@H](O)[C@H]2C(=O)O` [Amphotericin B], in the data set with invasive aspergillosis, the rate of nephrotoxicity is listed as 31%.

For `O=C(c1ccc2cccnc2c1O)N1CCC2CCCCC2C1` (stereo not shown) [Example 6, (8-Hydroxyquinolin-7-yl)(octahydroisoquinolin-2(1H)-yl)methanone], the minimal inhibitory concentration (MIC) in data set [1] was 0.5 µg/mL (≈ 1.61 µM); in data set [2] it was 1.41 µg/mL (≈ 4.54 µM); in data set [3] it was 2 µg/mL (≈ 6.44 µM); in data set [4], 1.41 µg/mL (≈ 4.54 µM); in data set [5], 1.41 µg/mL (≈ 4.54 µM); in data set [6] it was 1.41 µg/mL (≈ 4.54 µM).

For the compound `O=C(c1ccc2cccnc2c1O)N1Cc2ccccc2C1` [Example 10, (8-Hydroxyquinolin-7-yl)(isoindolin-2-yl)methanone], the minimal inhibitory concentration (MIC) was found to be 0.25 µg/mL (≈ 0.861 µM) in data set [1]; 2 µg/mL (≈ 6.89 µM) in data set [2]; 2 µg/mL (≈ 6.89 µM) in data set [3]; 2 µg/mL (≈ 6.89 µM) in data set [4]; 2 µg/mL (≈ 6.89 µM) in data set [5]; 1 µg/mL (≈ 3.44 µM) in data set [6].

Take `CN(C(=O)c1ccc2cccnc2c1O)c1ccc(Br)cc1` [Example 29, N-(4-Bromophenyl)-8-hydroxy-N-methylquinoline-7-carboxamide]: the MIC in data set [1] came to 0.13 µg/mL (≈ 0.364 µM); in data set [2], 4 µg/mL (≈ 11.2 µM); in data set [3] it was 4 µg/mL (≈ 11.2 µM); in data set [4], 2 µg/mL (≈ 5.6 µM); in data set [5], 1 µg/mL (≈ 2.8 µM); in data set [6], 2 µg/mL (≈ 5.6 µM).

Regarding `O=C(c1ccc2cccnc2c1O)N1C2CCCCC2C2CCCCC21` (stereo not shown) [Example 49, (Decahydro-1H-carbazol-9(9aH)-yl)(8-hydroxyquinolin-7-yl)methanone], the MIC was 0.25 µg/mL (≈ 0.713 µM) in data set [1]; 2 µg/mL (≈ 5.71 µM) in data set [2]; 2.83 µg/mL (≈ 8.08 µM) in data set [3]; 1 µg/mL (≈ 2.85 µM) in data set [4]; 1.41 µg/mL (≈ 4.02 µM) in data set [5]; 0.71 µg/mL (≈ 2.03 µM) in data set [6].

For `CN(Cc1ccc(Cl)cc1)C(=O)c1ccc2cccnc2c1O` [Example 56, N-(4-Chlorobenzyl)-8-hydroxy-N-methylquinoline-7-carboxamide], the MIC in data set [1] stood at 0.71 µg/mL (≈ 2.17 µM); in data set [2] it was 1.41 µg/mL (≈ 4.31 µM); in data set [3], 2 µg/mL (≈ 6.12 µM); in data set [4] it was 2 µg/mL (≈ 6.12 µM); in data set [5] it was 1 µg/mL (≈ 3.06 µM); in data set [6] it was 2 µg/mL (≈ 6.12 µM).

`O=C(c1ccc2cccnc2c1O)N1CCCc2ccc(F)cc21` [Example 61, (7-Fluoro-3,4-dihydroquinolin-1(2H)-yl)(8-hydroxyquinolin-7-yl)methanone]: the MIC amounted to 0.25 µg/mL (≈ 0.776 µM) in data set [1]; 2 µg/mL (≈ 6.2 µM) in data set [2]; 2 µg/mL (≈ 6.2 µM) in data set [3]; 0.71 µg/mL (≈ 2.2 µM) in data set [4]; 2 µg/mL (≈ 6.2 µM) in data set [5]; 1 µg/mL (≈ 3.1 µM) in data set [6].

In the case of `O=C(c1ccc2cccnc2c1O)N1CCCc2c(F)cc(F)cc21` [Example 70, (5,7-Difluoro-3,4-dihydroquinolin-1(2H)-yl)(8-hydroxyquinolin-7-yl)methanone], the minimal inhibitory concentration (MIC) in data set [1] worked out at 0.25 µg/mL (≈ 0.735 µM); in data set [2], 2 µg/mL (≈ 5.88 µM); in data set [3], 1 µg/mL (≈ 2.94 µM); in data set [4] it was 1 µg/mL (≈ 2.94 µM); in data set [5], 2 µg/mL (≈ 5.88 µM); in data set [6], 1 µg/mL (≈ 2.94 µM).

For the compound `O=C(c1ccc2cccnc2c1O)N1CCCc2c(F)cccc21` [Example 71, (5-Fluoro-3,4-dihydroquinolin-1(2H)-yl)(8-hydroxyquinolin-7-yl)methanone], the MIC in data set [1] came out at 0.25 µg/mL (≈ 0.776 µM); in data set [2], 2 µg/mL (≈ 6.2 µM); in data set [3] it was 2.83 µg/mL (≈ 8.78 µM); in data set [4], 0.71 µg/mL (≈ 2.2 µM); in data set [5], 2 µg/mL (≈ 6.2 µM); in data set [6], 1 µg/mL (≈ 3.1 µM).

In the case of `O=C(c1ccc2cccnc2c1O)N1CCCc2cc(F)ccc21` [Example 72, (6-Fluoro-3,4-dihydroquinolin-1(2H)-yl)(8-hydroxyquinolin-7-yl)methanone], the minimal inhibitory concentration (MIC) worked out at 0.25 µg/mL (≈ 0.776 µM) in data set [1]; 2 µg/mL (≈ 6.2 µM) in data set [2]; 2 µg/mL (≈ 6.2 µM) in data set [3]; 0.5 µg/mL (≈ 1.55 µM) in data set [4]; 2 µg/mL (≈ 6.2 µM) in data set [5]; 1 µg/mL (≈ 3.1 µM) in data set [6].

For `O=C(c1ccc2cccnc2c1O)N1CCCc2c(Cl)ccc(O)c21` [Example 73, (5-Chloro-8-hydroxy-3,4-dihydroquinolin-1(2H)-yl)(8-hydroxyquinolin-7-yl)methanone], the MIC was 0.125 µg/mL (≈ 0.352 µM) in data set [1]; 2 µg/mL (≈ 5.64 µM) in data set [2]; 1 µg/mL (≈ 2.82 µM) in data set [3]; 4 µg/mL (≈ 11.3 µM) in data set [4]; 2 µg/mL (≈ 5.64 µM) in data set [5]; 2 µg/mL (≈ 5.64 µM) in data set [6].

Turning to `O=C(c1ccc2cccnc2c1O)N1CCOc2ccccc21` [Example 74, (2H-Benzo[b][1,4]oxazin-4(3H)-yl)(8-hydroxyquinolin-7-yl)methanone], the MIC in data set [1] is 0.18 µg/mL (≈ 0.588 µM); in data set [2], 2 µg/mL (≈ 6.53 µM); in data set [3], 2 µg/mL (≈ 6.53 µM); in data set [4], 0.71 µg/mL (≈ 2.32 µM); in data set [5], 1.41 µg/mL (≈ 4.6 µM); in data set [6] it was 1 µg/mL (≈ 3.26 µM).
